# Measurements reported in US9527805B2, “Small molecules as epigenetic modulators of lysine-specific demethylase 1 and methods of treating disorders” (priority 2010, dated 2016).
# Read-outs that look alike come from different tables or passages of the source.
# Legend:
# recombinant human LSD1 = molecular target: T1, recombinant human LSD1 (Homo sapiens, UniProt O60341); assay: LSD1 demethylase assay, luminol-dependent chemiluminescence (H2O2 production), H3K4me2 (1-21 aa) peptide substrate; assay type: biochemical; conditions: compound at 10 μM
# T1 construct: Full-length human LSD1 cDNA was subcloned into the pET15b bacterial expression vector; 6xHis (N); made in house; host or cells: Escherichia coli BL21(DE3)
# Experimental: Full-length human LSD1 cDNA was subcloned into the pET15b bacterial expression vector (Novagen, Madison, Wis.) in frame with an N-terminal 6×HIS-tag and transformed into the BL21(DE3) strain of Escherichia coli. Following selection, expression and purification of recombinant LSD1 protein were performed as previously described. Briefly, expression of LSD1-HIS protein was induced by 1 mM IPTG for 6 h at 25° C. The HIS-tagged protein was purified using Ni-NTA affinity purification resin and column as recommended by the manufacturer (Qiagen, Valencia, Calif.). Bound protein was eluted by imidazole and the eluate was dialyzed in PBS at 4° C. Enzymatic activity of LSD1 was examined using luminol-dependent chemiluminescence to measure the production of H2O2, as previously described. In brief, LSD1 activity was assayed in 50 mM Tris, pH 8.5, 50 mM KCl, 5 mM MgCl, 5 nmol luminol, and 20 μg/ml horseradish peroxidase with the indicated concentrations of H3K4me2 (1-21 aa) peptide as substrate. The integral values were calibrated against standards containing known concentrations of H2O2, and the activities expressed as pmols H2O2/mg protein/min. Reaction mixtures were incubated with or without 5 μg purified LSD1 in 50 mM Tris, pH 8.5, 50 mM KCl, 5 mM MgCl, 0.5% BSA, and 5% glycerol for 3 hr at 37° C. This reaction mixture was analyzed by Western blotting using antibodies (Millipore) that specifically recognize the dimethyl group of H3K4.
# H3K4me2 = H3K4me2 level by Western blotting of nuclear fractions; assay type: cell-based; conditions: Homo sapiens
# Experimental: Synthetic H3K4me2 peptides were purchased from Millipore (Billerica, Mass.). Calu-6 cells were maintained in RPMI medium, both supplemented with 10% fetal bovine serum (Gemini Bio-Products, Woodland, Calif.) and grown at 37° C. in 5% CO2 atmosphere.
# Cytoplasmic and nuclear fractions were prepared for Western blot analysis using the NE-PER™ Nuclear and Cytoplasmic Extraction Kit (Pierce, Rockford, Ill.). Primary antibodies against H3K4me2 were from Millipore. The pCNA monoclonal antibody was purchased from Oncogene Research Products (Cambridge, Mass.). Dye-conjugated secondary antibodies were used for quantification of Western blot results using the Odyssey Infrared Detection system and software (LI-COR Biosciences, Lincoln, Nebr.).
# [1] = molecular target: recombinant LSD1/CoRest complex (Homo sapiens, UniProt O60341); conditions: cited from earlier work
# [2] = system: H3K4me2 in the P19 cell line; conditions: cited from earlier work
# [3] = system: HCT116 human colon tumor xenograft; assay: HCT116 human colon tumor xenograft model; assay type: in vivo, athymic nu/nu Fox Chase mice; conditions: 2 mg/kg, 5 times a week over 38 days
# Experimental: Previously, various polyaminobiguanidides were evaluated in an HCT116 human colon tumor xenograft model in athymic nu/nu Fox Chase mice. Mice were treated with polyaminobiguanidides, 5-azacytidine (5-AC) or a combination of the two agents. Drugs were administered 5 times a week over a period of 38 days.
# [4] = 24 h, read-out: H3K4me2 Fold Increase (24 h)
# [5] = 48 h, read-out: H3K4me2 Fold Increase (48 h)
remaining activity at 10 µM (recombinant human LSD1),SMILES,further results
100%,COC(=O)[C@H](CCCCNC(=S)NCC(c1ccccc1)c1ccccc1)NC(=O)CC(=O)Nc1ccccc1F [Entry 43],–
88.4%,COC(=O)[C@@H](N)CCCCNC(=O)CC(=O)Nc1ccccc1F [Entry 38],fold induction at 5 µM (H3K4me2; [4]): 0.3; fold induction at 10 µM (H3K4me2; [4]): 0.2; fold induction at 5 µM (H3K4me2; [5]): 0.7; fold induction at 10 µM (H3K4me2; [5]): 5.6
90.4%,C#CCNCCCC[C@H](NC(=O)CC(=O)Nc1ccccc1F)C(=O)OC [Entry 46],–
100%,COC(=O)[C@H](CCCCNC(=O)NCC(c1ccccc1)c1ccccc1)NC(=O)CC(=O)Nc1ccccc1F [Entry 40],–
84.1%,C#CCN(CC#C)CCCC[C@H](NC(=O)CC(=O)Nc1ccccc1F)C(=O)OC [Entry 45],–
100%,COC(=O)[C@H](CCCCNC(=O)NCCC(c1ccccc1)c1ccccc1)NC(=O)CC(=O)Nc1ccccc1F [Entry 41],–
100%,COC(=O)[C@H](CCCCNC(=S)NCCC(c1ccccc1)c1ccccc1)NC(=O)CC(=O)Nc1ccccc1F [Entry 44],–
100%,COC(=O)[C@H](CCCCNC(=O)NC(c1ccccc1)c1ccccc1)NC(=O)CC(=O)Nc1ccccc1F [Entry 39],–
92.4%,C#CCN(CC#C)CCCC[C@H](NC(=O)CCC(=O)Nc1ccccc1F)C(=O)OC [Entry 47],–
100%,COC(=O)[C@H](CCCCNC(=S)NC(c1ccccc1)c1ccccc1)NC(=O)CC(=O)Nc1ccccc1F [Entry 42],fold induction at 5 µM (H3K4me2; [4]): 49.1; fold induction at 10 µM (H3K4me2; [4]): 60.6; fold induction at 5 µM (H3K4me2; [5]): 0.5; fold induction at 10 µM (H3K4me2; [5]): 3

# Continued, compound first:
SMILES,remaining activity at 10 µM (recombinant human LSD1),further results
O=C(O)CCCCC(=O)Nc1ccccc1F [Entry 36],76.4%,–
O=C(O)CCCCCC(=O)Nc1ccccc1F [Entry 37],95.9%,–
NNCCc1ccccc1 [phenelzine],–,effect on nucleosomal demethylation (in words) [1]: inactivate nucleosomal demethylation; effect on global levels of H3K4me2 (in words) [2]: increase global levels of H3K4me2
C#CCN(CC#C)CCCC[C@H](NC(=O)CCCCCC(=O)Nc1ccccc1F)C(=O)OC [Entry 50],100%,–
C#CCN(CC#C)CCCC[C@H](NC(=O)CCCCC(=O)Nc1ccccc1F)C(=O)OC [Entry 49],100%,–
N[C@@H]1C[C@H]1c1ccccc1 (racemic) [tranylcypromine],–,effect on global levels of H3K4me2 (in words) [2]: increase global levels of H3K4me2
O=C(O)CC(=O)Nc1ccccc1F [Entry 33],98.2%,fold induction at 5 µM (H3K4me2; [4]): 1.81; fold induction at 10 µM (H3K4me2; [4]): 1.5; fold induction at 5 µM (H3K4me2; [5]): 3.15; fold induction at 10 µM (H3K4me2; [5]): 1.09
O=C(O)CCC(=O)Nc1ccccc1F [Entry 34],92.6%,–
"Nc1ncn([C@@H]2O[C@H](CO)[C@@H](O)[C@H]2O)c(=O)n1 [Entry 5-AC, 5-azacytidine]",–,reduction of tumor growth [3]: about 50%
C#CCN(CC#C)CCCC[C@H](NC(=O)CCCC(=O)Nc1ccccc1F)C(=O)OC [Entry 48],100%,–
O=C(O)CCCC(=O)Nc1ccccc1F [Entry 35],100%,–
